Reference: patent US12371428B2 (Exelixis, Inc., priority 2019, dated 2025)
Read-outs that look alike come from different tables or passages of the source.

Columns and labels:
Format in all cases: cell-based
[1] = molecular target: AXL (phospho-AXL, Gas6-stimulated A-172 glioblastoma cells) (Homo sapiens (Human), UniProt P30530); test: AXL autophosphorylation ELISA in A-172 cells (Example E); settings: cellular activity, read-out: Axl IC50
Summary of the method: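 Phospho-AXL was measured by ELISA in lysates of Gas6-stimulated A-172 cells, starved 24 h in serum-free medium and exposed 1 h to an 8-point compound dilution at 0.3% DMSO.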

[2] = molecular target: Mer (phospho-Mer, MERTK-transfected 293A cells) (Homo sapiens (Human), UniProt Q12866); test: Mer autophosphorylation ELISA in transient transfected 293A cells (Example H); settings: cellular activity
Summary of the method: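 IC50 from 4-parameter logistic fit of phospho-Mer levels, quantified by ELISA against a phospho-Mer standard in lysates of MERTK-transfected 293A cells. Cells exposed 1 h to 8-point serial dilutions, serum-free, 0.3% DMSO; controls: DMSO (100%) and reference inhibitor (0%).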

[3] = molecular target: KDR (phospho-KDR, VEGF165-stimulated HUVEC cells) (Homo sapiens (Human), UniProt P35968); test: KDR autophosphorylation ELISA in HUVEC cells (Example G); settings: cellular activity
Summary of the method: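 Inhibition of VEGF165-driven KDR autophosphorylation is measured in primary human umbilical vein endothelial cells after 24 h serum deprivation. Compound preincubation lasts 1 h before a 5-minute challenge with 100 ng/mL ligand, and phosphorylated receptor is then measured by ELISA in the lysates.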

[4] = molecular target: Met (phospho-Met, HGF-stimulated PC-3 prostate cancer cells) (Homo sapiens (Human), UniProt P08581); test: Met autophosphorylation ELISA in PC-3 cells (Example F); settings: cellular activity, read-out: c-Met IC50
Summary of the method: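 Compounds were tested on HGF-stimulated PC-3 cells. After 24 h culture and 3 h serum starvation, cells got compound for 1 h and 100 ng/mL HGF for 10 min, and Met tyrosine phosphorylation was measured by ELISA.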

[5] = AXL autophosphorylation ELISA in A-172 cells
[6] = Mer autophosphorylation ELISA in transient transfected 293A cells
[7] = KDR autophosphorylation ELISA in HUVEC cells
[8] = Met autophosphorylation ELISA in PC-3 cells

Chain of KDR (phospho-KDR, VEGF165-stimulated HUVEC cells) (P35968 20-1356): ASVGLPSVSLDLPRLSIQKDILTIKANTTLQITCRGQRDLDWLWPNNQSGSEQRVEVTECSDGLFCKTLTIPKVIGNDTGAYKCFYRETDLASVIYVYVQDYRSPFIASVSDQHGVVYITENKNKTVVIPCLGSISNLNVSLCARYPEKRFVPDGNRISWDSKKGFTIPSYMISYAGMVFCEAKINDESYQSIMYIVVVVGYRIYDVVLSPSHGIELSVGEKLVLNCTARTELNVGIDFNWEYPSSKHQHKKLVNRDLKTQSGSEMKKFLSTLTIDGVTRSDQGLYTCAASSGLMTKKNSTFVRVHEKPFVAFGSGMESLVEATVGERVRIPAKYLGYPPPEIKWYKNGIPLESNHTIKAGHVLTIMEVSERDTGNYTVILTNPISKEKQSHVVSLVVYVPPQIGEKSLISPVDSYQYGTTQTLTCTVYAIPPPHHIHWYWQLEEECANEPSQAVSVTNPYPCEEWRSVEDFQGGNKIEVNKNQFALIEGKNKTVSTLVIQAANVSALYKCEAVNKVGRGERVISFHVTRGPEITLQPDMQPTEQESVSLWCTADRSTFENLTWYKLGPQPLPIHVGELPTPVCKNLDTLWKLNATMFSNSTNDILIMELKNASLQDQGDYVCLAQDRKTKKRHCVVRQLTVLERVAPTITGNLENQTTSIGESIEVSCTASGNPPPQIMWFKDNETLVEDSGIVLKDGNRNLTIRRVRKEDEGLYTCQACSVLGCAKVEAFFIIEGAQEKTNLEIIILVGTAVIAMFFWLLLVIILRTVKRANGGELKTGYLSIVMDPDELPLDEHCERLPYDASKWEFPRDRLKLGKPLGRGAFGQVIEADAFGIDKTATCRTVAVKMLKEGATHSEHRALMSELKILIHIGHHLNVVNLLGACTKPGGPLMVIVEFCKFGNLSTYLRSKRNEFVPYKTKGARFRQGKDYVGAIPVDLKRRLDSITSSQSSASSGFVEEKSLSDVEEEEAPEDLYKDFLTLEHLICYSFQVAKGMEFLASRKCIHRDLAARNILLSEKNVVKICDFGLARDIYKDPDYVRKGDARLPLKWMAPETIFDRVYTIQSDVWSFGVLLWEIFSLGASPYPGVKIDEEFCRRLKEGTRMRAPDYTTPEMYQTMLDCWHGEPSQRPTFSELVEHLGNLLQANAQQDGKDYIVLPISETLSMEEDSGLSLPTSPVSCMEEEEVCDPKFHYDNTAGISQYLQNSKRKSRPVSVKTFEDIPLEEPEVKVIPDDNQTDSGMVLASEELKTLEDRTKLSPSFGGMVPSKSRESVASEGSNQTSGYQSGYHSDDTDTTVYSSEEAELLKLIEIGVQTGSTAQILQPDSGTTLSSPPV
Chain of Met (phospho-Met, HGF-stimulated PC-3 prostate cancer cells) (P08581 25-1390): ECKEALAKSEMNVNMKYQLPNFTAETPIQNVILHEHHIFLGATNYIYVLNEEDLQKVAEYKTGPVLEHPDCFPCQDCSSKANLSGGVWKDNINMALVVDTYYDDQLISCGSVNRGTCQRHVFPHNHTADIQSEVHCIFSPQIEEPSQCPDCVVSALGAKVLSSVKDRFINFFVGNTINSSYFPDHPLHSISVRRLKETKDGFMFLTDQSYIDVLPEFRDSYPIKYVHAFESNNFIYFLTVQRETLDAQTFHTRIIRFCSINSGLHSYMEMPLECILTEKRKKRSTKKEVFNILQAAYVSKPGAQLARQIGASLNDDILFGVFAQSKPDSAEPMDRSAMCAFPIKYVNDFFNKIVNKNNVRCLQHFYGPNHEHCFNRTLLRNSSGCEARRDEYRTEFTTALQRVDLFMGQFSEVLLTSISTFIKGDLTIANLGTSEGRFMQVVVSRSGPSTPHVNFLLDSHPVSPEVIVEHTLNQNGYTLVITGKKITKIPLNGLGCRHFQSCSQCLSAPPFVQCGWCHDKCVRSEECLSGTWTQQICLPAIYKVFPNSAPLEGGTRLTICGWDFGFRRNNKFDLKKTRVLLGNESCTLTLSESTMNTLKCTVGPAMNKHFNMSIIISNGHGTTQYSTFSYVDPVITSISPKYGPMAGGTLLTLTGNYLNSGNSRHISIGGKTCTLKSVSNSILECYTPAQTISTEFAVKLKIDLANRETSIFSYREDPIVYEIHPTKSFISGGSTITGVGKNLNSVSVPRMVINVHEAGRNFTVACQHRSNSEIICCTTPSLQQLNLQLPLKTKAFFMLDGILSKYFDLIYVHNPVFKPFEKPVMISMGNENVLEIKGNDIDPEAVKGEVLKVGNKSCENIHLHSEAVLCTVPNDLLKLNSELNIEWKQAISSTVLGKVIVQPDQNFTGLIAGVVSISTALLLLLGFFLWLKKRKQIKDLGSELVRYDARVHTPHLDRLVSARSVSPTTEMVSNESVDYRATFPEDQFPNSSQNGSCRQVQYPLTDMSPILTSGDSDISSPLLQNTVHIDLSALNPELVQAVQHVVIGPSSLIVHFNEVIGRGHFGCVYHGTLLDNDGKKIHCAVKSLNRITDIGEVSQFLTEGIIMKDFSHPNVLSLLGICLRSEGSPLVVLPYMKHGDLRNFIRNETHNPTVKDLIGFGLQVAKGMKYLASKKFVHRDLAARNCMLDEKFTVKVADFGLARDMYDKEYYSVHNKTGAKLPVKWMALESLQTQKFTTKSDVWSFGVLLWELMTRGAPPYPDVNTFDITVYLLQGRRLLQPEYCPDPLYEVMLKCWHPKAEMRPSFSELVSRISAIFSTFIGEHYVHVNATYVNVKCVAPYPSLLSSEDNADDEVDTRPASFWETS
Chain of Mer (phospho-Mer, MERTK-transfected 293A cells) (Q12866 21-999): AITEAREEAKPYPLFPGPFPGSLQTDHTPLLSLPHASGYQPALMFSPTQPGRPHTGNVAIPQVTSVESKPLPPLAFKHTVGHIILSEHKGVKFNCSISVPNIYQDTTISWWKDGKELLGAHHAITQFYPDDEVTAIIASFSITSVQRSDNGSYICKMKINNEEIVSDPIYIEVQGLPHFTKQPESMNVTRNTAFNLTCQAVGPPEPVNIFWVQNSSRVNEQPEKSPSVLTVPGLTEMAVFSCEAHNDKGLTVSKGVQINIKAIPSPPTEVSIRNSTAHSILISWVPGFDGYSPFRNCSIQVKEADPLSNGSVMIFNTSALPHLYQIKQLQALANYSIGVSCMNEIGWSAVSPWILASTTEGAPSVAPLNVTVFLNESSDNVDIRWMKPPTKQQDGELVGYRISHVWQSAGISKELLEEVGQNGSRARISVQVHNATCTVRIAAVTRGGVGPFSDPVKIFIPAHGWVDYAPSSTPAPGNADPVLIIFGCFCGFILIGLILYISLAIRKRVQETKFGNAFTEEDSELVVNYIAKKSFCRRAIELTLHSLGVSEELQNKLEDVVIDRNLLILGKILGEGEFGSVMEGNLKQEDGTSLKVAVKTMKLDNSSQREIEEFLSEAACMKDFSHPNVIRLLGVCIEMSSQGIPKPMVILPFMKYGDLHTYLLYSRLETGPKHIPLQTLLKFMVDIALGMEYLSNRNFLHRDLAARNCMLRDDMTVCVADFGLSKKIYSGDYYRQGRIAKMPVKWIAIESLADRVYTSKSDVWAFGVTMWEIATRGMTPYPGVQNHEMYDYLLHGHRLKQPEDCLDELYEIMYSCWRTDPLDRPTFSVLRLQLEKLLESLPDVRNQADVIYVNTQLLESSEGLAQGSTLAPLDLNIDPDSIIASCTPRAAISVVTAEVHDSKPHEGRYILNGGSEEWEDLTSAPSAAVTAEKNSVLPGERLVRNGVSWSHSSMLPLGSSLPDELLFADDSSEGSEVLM
Chain of AXL (phospho-AXL, Gas6-stimulated A-172 glioblastoma cells) (P30530 26-894): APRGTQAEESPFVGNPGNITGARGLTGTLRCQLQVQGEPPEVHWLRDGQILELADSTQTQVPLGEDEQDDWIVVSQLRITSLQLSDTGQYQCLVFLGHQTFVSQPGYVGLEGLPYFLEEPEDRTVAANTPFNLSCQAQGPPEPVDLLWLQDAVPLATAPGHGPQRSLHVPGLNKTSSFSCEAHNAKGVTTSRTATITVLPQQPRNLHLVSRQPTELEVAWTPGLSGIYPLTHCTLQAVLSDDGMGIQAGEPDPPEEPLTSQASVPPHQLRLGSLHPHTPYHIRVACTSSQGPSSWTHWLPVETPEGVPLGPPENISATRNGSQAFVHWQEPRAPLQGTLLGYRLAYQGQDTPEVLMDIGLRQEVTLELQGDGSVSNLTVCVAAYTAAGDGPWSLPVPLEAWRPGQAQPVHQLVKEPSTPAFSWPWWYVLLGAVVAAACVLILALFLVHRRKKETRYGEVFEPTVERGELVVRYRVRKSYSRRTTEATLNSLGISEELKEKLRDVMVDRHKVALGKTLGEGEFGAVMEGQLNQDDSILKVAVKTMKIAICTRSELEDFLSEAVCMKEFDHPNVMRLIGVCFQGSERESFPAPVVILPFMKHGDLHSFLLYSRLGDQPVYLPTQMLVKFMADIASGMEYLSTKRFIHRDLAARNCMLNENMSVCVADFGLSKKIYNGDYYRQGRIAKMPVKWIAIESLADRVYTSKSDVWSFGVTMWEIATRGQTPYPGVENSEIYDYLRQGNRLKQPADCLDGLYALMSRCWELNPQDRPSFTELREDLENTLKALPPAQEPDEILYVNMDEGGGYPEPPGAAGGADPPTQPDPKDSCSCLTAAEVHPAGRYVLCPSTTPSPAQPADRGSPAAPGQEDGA

With `COc1cnc2c(Oc3ccc(NC(=O)c4c(C)n(CC(F)F)cc(-c5ccc(F)cc5OC)c4=O)cc3F)ccnc2c1` [Compound 811, 1-(2,2-difluoroethyl)-N-[3-fluoro-4-[(7-methoxy-1,5-naphthyridin-4-yl)oxy]phenyl]-5-(4-fluoro-2-methoxyphenyl)-2-methyl-4-oxopyridine-3-carboxamide] the IC50 ([1]; A-172 cells) was under 100 nM, the IC50 ([2]; transfected 293A cells) was under 100 nM and the IC50 ([3]; HUVEC cells) was under 100 nM. The IC50 ([4]; PC-3 cells) was under 100 nM.
`COc1cc(Oc2ccnc3cc(OC)c(OC)nc23)c(F)cc1NC(=O)c1cn(C)c(C)c(-c2ccc(F)cc2)c1=O` [Compound 743, N-[4-[(6,7-dimethoxy-1,5-naphthyridin-4-yl)oxy]-5-fluoro-2-methoxyphenyl]-5-(4-fluorophenyl)-1,6-dimethyl-4-oxopyridine-3-carboxamide] gave an IC50 [1, 5] of under 100 nM, an IC50 [2, 6] of under 100 nM and an IC50 [3, 7] of over 300 nM. It also gave an IC50 [4, 8] of under 100 nM.
`COc1cc2nccc(Oc3ccc(NC(=O)c4c(C)ccn(-c5ccc(F)cc5C)c4=O)cc3)c2nc1OC` [Compound 332, N-[4-[(6,7-dimethoxy-1,5-naphthyridin-4-yl)oxy]phenyl]-1-(4-fluoro-2-methylphenyl)-4-methyl-2-oxopyridine-3-carboxamide] gave an IC50 [1, 5] of under 100 nM, an IC50 [2, 6] of under 100 nM and an IC50 [3, 7] of under 100 nM. It also gave an IC50 [4, 8] of under 100 nM.
Molecule `CCc1c(C)c(C(=O)Nc2ccc(Oc3ccnc4cc(OC)cnc34)c(F)c2)c(=O)n(-c2ccc(F)cc2)c1C` [Compound 335, 5-ethyl-N-[3-fluoro-4-[(7-methoxy-1,5-naphthyridin-4-yl)oxy]phenyl]-1-(4-fluorophenyl)-4,6-dimethyl-2-oxopyridine-3-carboxamide] has an IC50 [1, 5] of under 100 nM, an IC50 [2, 6] of under 100 nM and an IC50 [3, 7] of over 300 nM. For the same molecule, the IC50 [4, 8] was under 100 nM.
With `CCOc1nc2c(Oc3ccc(NC(=O)c4cnc(C)c(-c5ccc(F)cc5C)c4O)cc3)ccnc2cc1OC` [Compound 673, N-[4-[(6-ethoxy-7-methoxy-1,5-naphthyridin-4-yl)oxy]phenyl]-5-(4-fluoro-2-methylphenyl)-4-hydroxy-6-methylpyridine-3-carboxamide] the IC50 [1, 5] was under 100 nM, the IC50 [2, 6] was under 100 nM and the IC50 [3, 7] was under 100 nM. The IC50 [4, 8] was under 100 nM.
Work on `COc1cnc2c(Oc3ccc(NC(=O)c4cnc(C5CC5)c(-c5ccc(F)cc5)c4O)cc3F)ccnc2c1` [Compound 658, 6-cyclopropyl-N-[3-fluoro-4-[(7-methoxy-1,5-naphthyridin-4-yl)oxy]phenyl]-5-(4-fluorophenyl)-4-hydroxypyridine-3-carboxamide] yielded an IC50 [1, 5] of under 100 nM, an IC50 [2, 6] of under 100 nM and an IC50 [3, 7] of over 300 nM. It also gave an IC50 [4, 8] of under 100 nM.
`COc1cc(F)ccc1-c1cn(CC(F)F)c(C)c(C(=O)Nc2ccc(Oc3ccnc4cc(OC)c(OC)nc34)c(F)c2)c1=O` [Compound 810, 1-(2,2-difluoroethyl)-N-[4-[(6,7-dimethoxy-1,5-naphthyridin-4-yl)oxy]-3-fluorophenyl]-5-(4-fluoro-2-methoxyphenyl)-2-methyl-4-oxopyridine-3-carboxamide] was tested, and the IC50 ([1]; A-172 cells) was under 100 nM, the IC50 ([2]; transfected 293A cells) was under 100 nM and the IC50 ([3]; HUVEC cells) was under 100 nM. It also gave an IC50 ([4]; PC-3 cells) of under 100 nM.
For `COCCOc1cc2nccc(Oc3ccc(NC(=O)c4c(C)nc(C)c(-c5ccc(F)cc5C)c4O)cc3)c2nc1OC` [Compound 725, 5-(4-fluoro-2-methylphenyl)-4-hydroxy-N-[4-[[6-methoxy-7-(2-methoxyethoxy)-1,5-naphthyridin-4-yl]oxy]phenyl]-2,6-dimethylpyridine-3-carboxamide], the IC50 [1, 5] was under 100 nM, the IC50 [2, 6] was under 100 nM and the IC50 [3, 7] was under 100 nM. The IC50 [4, 8] was under 100 nM.
`COCc1nc(C)c(Br)c(O)c1C(=O)Nc1ccc(Oc2ccnc3cc(OC)c(OC)nc23)c(F)c1` [Compound 535, 5-bromo-N-[4-[(6,7-dimethoxy-1,5-naphthyridin-4-yl)oxy]-3-fluorophenyl]-4-hydroxy-2-(methoxymethyl)-6-methylpyridine-3-carboxamide] was tested, and the IC50 [1, 5] was under 100 nM, the IC50 [2, 6] was under 100 nM and the IC50 [3, 7] was over 300 nM. It also gave an IC50 [4, 8] of under 100 nM.
With `COc1cc2nccc(Oc3ccc(NC(=O)c4c(C)c(C#N)c(C)n(-c5ccc(F)cc5)c4=O)cc3)c2nc1OC` [Compound 320, 5-Cyano-N-[4-[(6,7-dimethoxy-1,5-naphthyridin-4-yl)oxy]phenyl]-1-(4-fluorophenyl)-4,6-dimethyl-2-oxopyridine-3-carboxamide] the IC50 [1, 5] was under 100 nM, the IC50 [2, 6] was under 100 nM and the IC50 [3, 7] was over 300 nM. It also gave an IC50 [4, 8] of under 100 nM.
In the case of `COc1cnc2c(Oc3ccc(NC(=O)c4c(C)nc(C)c(-c5ccc(F)c(F)c5)c4O)cc3F)ccnc2c1` [Compound 687, 5-(3,4-difluorophenyl)-N-[3-fluoro-4-[(7-methoxy-1,5-naphthyridin-4-yl)oxy]phenyl]-4-hydroxy-2,6-dimethylpyridine-3-carboxamide], the IC50 [1, 5] is reported as under 100 nM, the IC50 [2, 6] is reported as under 100 nM and the IC50 [3, 7] is reported as under 100 nM. For the same molecule, the IC50 [4, 8] was under 100 nM.
`COCCOc1cc2nccc(Oc3ccc(NC(=O)c4c(C)nc(C)c(-c5ccc(F)cc5C)c4O)cc3F)c2nc1OC` [Compound 487, N-[3-fluoro-4-[[6-methoxy-7-(2-methoxyethoxy)-1,5-naphthyridin-4-yl]oxy]phenyl]-5-(4-fluoro-2-methylphenyl)-4-hydroxy-2,6-dimethylpyridine-3-carboxamide] gave an IC50 [1, 5] of under 100 nM, an IC50 [2, 6] of under 100 nM and an IC50 [3, 7] of under 100 nM. It also gave an IC50 [4, 8] of under 100 nM.
With `COc1cc2nccc(Oc3ccc(NC(=O)c4c(C)c(C(C)=O)cn(-c5ccc(F)cc5)c4=O)cc3F)c2nc1OC` [Compound 654, 5-acetyl-N-[4-[(6,7-dimethoxy-1,5-naphthyridin-4-yl)oxy]-3-fluorophenyl]-1-(4-fluorophenyl)-4-methyl-2-oxopyridine-3-carboxamide] the IC50 [1, 5] was under 100 nM, the IC50 [2, 6] was under 100 nM and the IC50 [3, 7] was under 100 nM. The IC50 [4, 8] was under 100 nM.
Molecule `COc1cc2nccc(Oc3ccc(NC(=O)c4c(OC)c(C(C)=O)cn(-c5ccc(F)cc5)c4=O)cc3F)c2nc1OC` [Compound 754, 5-acetyl-N-[4-[(6,7-dimethoxy-1,5-naphthyridin-4-yl)oxy]-3-fluorophenyl]-1-(4-fluorophenyl)-4-methoxy-2-oxopyridine-3-carboxamide] has an IC50 [1, 5] of under 100 nM, an IC50 [2, 6] of under 100 nM and an IC50 [3, 7] of over 300 nM. For the same molecule, the IC50 [4, 8] was under 100 nM.
`COCc1nc(C)c(-c2ccc(F)cc2)c(OC)c1C(=O)Nc1ccc(Oc2ccnc3cc(OC)c(OC)nc23)c(F)c1` [Compound 663, N-[4-[(6,7-dimethoxy-1,5-naphthyridin-4-yl)oxy]-3-fluorophenyl]-5-(4-fluorophenyl)-4-methoxy-2-(methoxymethyl)-6-methylpyridine-3-carboxamide] gave an IC50 [1, 5] of under 100 nM, an IC50 [2, 6] of under 100 nM and an IC50 [3, 7] of over 300 nM. The IC50 [4, 8] was under 100 nM.
For `COc1cc(NC(=O)c2cn(C)c(C)c(-c3ccc(F)cc3)c2=O)ccc1Oc1ccnc2cc(OC)c(OC)nc12` [Compound 762, N-[4-[(6,7-dimethoxy-1,5-naphthyridin-4-yl)oxy]-3-methoxyphenyl]-5-(4-fluorophenyl)-1,6-dimethyl-4-oxopyridine-3-carboxamide], the IC50 [1, 5] was under 100 nM, the IC50 [2, 6] was under 100 nM and the IC50 [3, 7] was under 100 nM. The IC50 [4, 8] was under 100 nM.
In the case of `COCc1nc(C)c(-c2ccc(F)cc2)c(O)c1C(=O)Nc1ccc(Oc2ccnc3cnc(OC)cc23)c(F)c1` [Compound 501, N-[3-Fluoro-4-[(6-methoxy-1,7-naphthyridin-4-yl)oxy]phenyl]-5-(4-fluorophenyl)-4-hydroxy-2-(methoxymethyl)-6-methylpyridine-3-carboxamide], the IC50 [1, 5] is reported as under 100 nM, the IC50 [2, 6] is reported as under 100 nM and the IC50 [3, 7] is reported as under 100 nM. It also gave an IC50 [4, 8] of under 100 nM.
